# Measured values published in patent US7964613B2 (Asahi Kasei Pharma Corporation, priority 2007, dated 2011).
# Where a name gives a salt, the structure may show the parent alone.
# Assays:
# [1] = target: T1, human ROCK1 (Homo sapiens, UniProt Q13464); experiment: Measurement of Rho kinase inhibitory activity (ELISA of MBS phosphorylation); assay type: biochemical; details: human ROCK1, MBS substrate, 100 μM ATP, 30° C. for 10 minutes
# T1 construct: His tag (N); host or cells: insect cells (Sf9)
# T1 sequence (Q13464 1-727): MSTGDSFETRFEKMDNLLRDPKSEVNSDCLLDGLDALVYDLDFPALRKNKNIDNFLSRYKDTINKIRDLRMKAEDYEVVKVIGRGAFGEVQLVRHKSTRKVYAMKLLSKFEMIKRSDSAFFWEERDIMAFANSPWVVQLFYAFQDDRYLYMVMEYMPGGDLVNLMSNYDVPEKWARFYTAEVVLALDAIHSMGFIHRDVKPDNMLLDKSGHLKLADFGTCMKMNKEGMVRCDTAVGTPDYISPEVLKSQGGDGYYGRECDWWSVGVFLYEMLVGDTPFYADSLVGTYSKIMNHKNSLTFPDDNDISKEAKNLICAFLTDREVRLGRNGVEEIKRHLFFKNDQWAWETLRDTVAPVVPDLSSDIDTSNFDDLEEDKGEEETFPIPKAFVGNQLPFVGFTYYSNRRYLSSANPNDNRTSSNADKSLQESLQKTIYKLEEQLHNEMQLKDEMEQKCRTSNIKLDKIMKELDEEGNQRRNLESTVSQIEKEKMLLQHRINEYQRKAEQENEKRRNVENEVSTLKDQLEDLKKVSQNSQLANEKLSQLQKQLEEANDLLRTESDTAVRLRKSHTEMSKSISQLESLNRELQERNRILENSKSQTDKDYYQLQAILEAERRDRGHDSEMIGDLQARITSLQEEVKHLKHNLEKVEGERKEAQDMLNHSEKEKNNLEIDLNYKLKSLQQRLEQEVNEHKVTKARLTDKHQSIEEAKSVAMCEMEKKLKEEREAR
# Outline: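 N-terminal His-tagged human ROCK1 (1-727, Sf9-expressed) phosphorylated plate-immobilized MBS in 20 mM HEPES pH 7.5, 100 μM ATP, 30° C for 10 minutes. Phospho-MBS detected by antibody ELISA (A490); IC50 is concentration giving 50% inhibition.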
# [2] = test system: rabbit normal intraocular pressure; experiment: Intraocular pressure reducing action; assay type: in vivo, Japanese white rabbit; details: Oryctolagus cuniculus, topical; 3 mM aqueous solution, 50 μl to the left eye; max IOP reduction (2, 4, 6 hours) / value immediately before administration; read-out: intraocular pressure reducing degree
# Outline: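 Japanese white rabbits (~2 kg) under topical anaesthesia received 50 μl of a 3 mM aqueous test solution in the left eye, right eye untreated. IOP read by tonometer before and at 2, 4, 6 h; maximal left–right difference divided by pre-dose IOP ×100 gives % reduction.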
# [3] = test system: TNF-α production; experiment: Inhibitory effect on TNF-α production in mice (LPS); assay type: in vivo, BALB/c mice; details: Mus musculus, 1.5 h; oral administration of 30 mg/kg, LPS 5 μg i.p. 60 minutes later, plasma after 90 minutes; read-out: TNF-α production suppressing action
# Experimental: BALB/c mice (Japan CRJ, famale) were used as experimental animals. Each test compound was dissolved in distilled water at a concentration suitable for the examination. The weight of each mouse was measured, a test compound solution was orally administered in a volume corresponding to 10 ml/kg, and only distilled water was administered to the control group. Each group consisted of five to seven animals. LPS was dissolved in physiological saline, and intraperitoneally administered to each mouse in an amount of 5 μg. The test compound was administered first, and LPS (lipopolysaccharide, Sigma) was administered 60 minutes later. After 90 minutes, blood was collected from the abdominal large vein in the presence of heparin, and plasma was obtained by centrifugation. TNF-α content in the plasma was measured by using the ELISA method.
# [4] = test system: rat spinal canal stenosis (cauda equina compression-induced walking dysfunction) model; experiment: Rat spinal canal stenosis model, walking ability test; assay type: in vivo; details: treadmill; for walk distance compared with the solvent repetitive administration group: 14th day of repetitive administration; for Inventive compound repetitive administration group (average distance (m)): 14th day of repetitive administration started 4th day after operation, 7 or 8 animals
# From the text: A rat spinal canal stenosis (cauda equina compression-induced walking dysfunction) model can be prepared according to the method of Nakai, K et al. (Anesth. Analg., 94, pp. 1537-1541 (2002)) or the like. Namely, a rat is anesthetized with pentobarbital sodium, shaved on the back, and fixed in the abdominal position. After disinfection on the back with Isodine Surgical Scrub (Meiji Seika), a lumbar part is cut open along the median to expose the spine. Then, a silicone rubber of 1×4×1.5 mm (height×length×width) is inserted into the fifth lumbar vertebral canal from a small hole on the vertebral arch. Benzylpenicillin potassium (Crystalline Penicillin G Potassium Meiji, Meiji Seika) is dropped on the opened lesion and intramuscularly injected in the femoral region for the purpose of evasion of infectious diseases. The muscles and skin of the opened lesion are sutured with a ligature, and Isodine Surgical Scrub is applied to the sutured portion. Animals of sham group are also prepared according to the aforementioned method, provided that silicone rubber is not inserted.
# In walking ability test, evaluation is performed by using a treadmill (Muromachi Kikai). A rat is placed on a traveling belt, adapted to the environment more than 3 minutes under a grid-electrified condition (0.04 to 4 mA), and then made to start walking from a velocity of 10 m/min, and then the velocity is increased by 5 m/min every 3 minutes. The walk is stopped, and electrical stimulation (0.04 to 4 mA) is applied to the rat which has moved to the grid for electrical stimulation provided before the traveling belt. Distance which the animal walked after the animal started the walk until the animal became unable to walk, i.e., the animal came not to walk even if a stimulation (sound, contact, electricity) was added to the animal to urge it to walk, was calculated from the walking time. Before the operation, the walking function test is carried out 3 times to perform training of walk. From the 4th day after the operation, repetitive administration of each compound of the present invention as a test compound was started, and the walking ability test was performed on the 14th day of the administration for the measurement.
# Each group consisted of 7 or 8 animals, and the average distance before the administration was the average for the animals of both groups. […] It was confirmed that the compounds of the present invention were useful as medicaments for therapeutic treatment of a disease accompanied by walking dysfunction such as spinal canal stenosis.
# [5] = test system: myosin regulatory light chain of mesenteric artery; details: cited from earlier work
# [6] = test system: intraocular pressure; experiment: Rabbit intraocular pressure reduction enhancing action, Test Example 7-1 (combination use); assay type: in vivo, Japanese white rabbit; details: 19-1 compound 0.01 weight % aqueous solution 50 μL, left-right eye difference at 2, 4, 6 hours, six rabbits
# Experimental: However, the effect is not limited to the 19-1 compound, and the ophthalmic solution concentration of the 19-1 compound is not limited to those used in this test example. Moreover, as for the test compound used for combination use, similar effect can be obtained also with the compounds of the present invention represented with the example numbers mentioned in Test Example 3.
# As a test compound, the 19-1 compound was dissolved in physiological saline, and the solution was neutralized by addition of sodium hydroxide (pH 7.0 to 8.0) to prepare a 0.01 weight % aqueous solution (19-1 compound aqueous solution). As the drugs for combination use, isopropyl unoprostone (trade name: Rescula, Santen Pharmaceutical) was used as a prostaglandin-related drug, and brinzolamide hydrochloride (trade name: Azopt, Alcon Japan) was used as […], as the marketed formulations as they were.
# A Japanese white rabbit having a body weight of about 2 kg was placed in a positioner and naturalized for one week before the experiment. An opthalmologic local anesthesant (Benoxil) was administered to both eyes, and then intraocular pressure before instillation was measured by using a tonometer (Classic 30, Solan). A test aqueous solution or the drug for combination use was administered to the left eye, and the right eye was not treated (control eye). The test groups consisted of (1) control group, (2) group instilled only with the 19-1 compound aqueous solution (single drug group 1), (3) group instilled only with the drug for combination use (single drug group 2), and (4) group instilled with the drug for combination use and the 19-1 compound aqueous solution (combination use group), and six rabbits were used for each group. As for the rabbits of these groups, 50 μL of physiological saline was first instilled to the control group, single drug group 1, and single drug group 2, and the drug for combination use was first instilled in the same volume to the combination use group. […] The intraocular pressure thereafter was measured for each group 2, 4 and 6 hours after the second administration of the test compound, and the difference of the measured values for the left and right eyes at each measurement time was considered an intraocular pressure reduction value of each group. The largest difference of the intraocular pressure values for the left and right eyes among those of the measured values of the measurement times was considered the maximum intraocular pressure reduction value (max ? IOP) of each drug group.
# [7] = test system: intraocular pressure; experiment: Rabbit intraocular pressure reduction enhancing action, Test Example 7-2 (combination use with timolol maleate); assay type: in vivo, Japanese white rabbit; details: Table 6; 19-1 compound 0.01 weight % aqueous solution 50 μL, Timoptol 50 μL; difference relative to control group at 1, 2, 4 hours; 12 rabbits
# Experimental: As a test compound, the 19-1 compound was dissolved in physiological saline, and the solution was neutralized by addition of sodium hydroxide (pH 7.0 to 8.0) to prepare a 0.01 weight % aqueous solution (19-1 compound aqueous solution). As a drug for combination use, timolol maleate (trade name: Timoptol, Santen Pharmaceutical) was used as an adrenergic receptor β blocker, as the marketed formulation as it was.
# A Japanese white rabbit having a body weight of about 2 kg was placed in a positioner and naturalized for one week before the experiment. An opthalmologic local anesthesant (Benoxil) was administered to both eyes, and then intraocular pressure before instillation was measured by using a tonometer (Classic 30, Solan). […] The intraocular pressure thereafter was measured for each group 1, 2 and 4 hours after the second administration of the test compound, and the difference of the measured values at each measurement time for the each group and the control group was considered an intraocular pressure reduction value of each group. The largest difference of the intraocular pressure values relative to the control group among those of the measured values of the measurement times was considered the maximum intraocular pressure reduction value (max ? IOP) of each drug group.
smiles,measurement,setting,value
"Cc1cncc2cccc(S(=O)(=O)N3CC[C@H](N)C3)c12 [Example 8-1, (S)-3-Amino-1-(4-methyl-5-isoquinolinesulfonyl)pyrrolidine]",IC50,[1],< 1000 nM
same,inhibition in vivo at 3000 µM,[2],≥ 20%
same,inhibition in vivo at 30 mg/kg,[3],≥ 50%
same,walk distance compared with the solvent repetitive administration group,[4],extended the walk distance
same,Inventive compound repetitive administration group (average distance (m)),[4],169 m
"CN(C)CC(=O)N[C@H]1CCN(S(=O)(=O)c2cccc3cncc(Cl)c23)C1 [Example 57-1, (S)-3-[(2-Dimethylamino)acetyl]amino-1-(4-chloro-5-isoquinolinesulfonyl)pyrrolidine]",IC50,[1],1000 to 3000 nM
same,inhibition in vivo at 3000 µM,[2],≥ 20%
same,inhibition in vivo at 30 mg/kg,[3],≥ 30%
same,walk distance compared with the solvent repetitive administration group,[4],extended the walk distance
same,Inventive compound repetitive administration group (average distance (m)),[4],183 m
"CC1CNCCN1S(=O)(=O)c1cccc2cnccc12 (centres unmarked) [Example H-7, 1-(5-isoquinolinesulfonyl)-2-methylpiperazine]",inhibition of phosphorylation of myosin regulatory light chain,[5],inhibits the phosphorylation of myosin regulatory light chain of mesenteric artery
"CCN[C@H]1CN(CCCOC)S(=O)(=O)c2sc(S(N)(=O)=O)cc21 [brinzolamide hydrochloride, reference compound]",Max IOP (maximum intraocular pressure reduction value),"[6]; Table 4, Azopt 50 μL",2.3 mmHg
"CCCCCCCC(=O)CC[C@@H]1[C@@H](C/C=C\CCCC(=O)OC(C)C)[C@@H](O)C[C@H]1O [isopropyl unoprostone, reference compound]",Max IOP (maximum intraocular pressure reduction value),"[6]; Table 5, Rescula 50 μL",4.4 mmHg
"CC(C)(C)NC[C@H](O)COc1nsnc1N1CCOCC1 [timolol maleate, reference compound]",Max IOP (maximum intraocular pressure reduction value),[7],1.9 mmHg
